Like-named read-outs stand apart in the source and are kept apart here.
Experiments:
PDE7B = PDE7B (Homo sapiens, UniProt Q9NP56); assay: in vitro enzyme assay, PDE7B catalytic domain from E. coli, hydrolysis of cAMP to AMP; assay type: biochemical; design: The PDE7B catalytic domain was expressed in and purified from E. coli; made in house; host or cells: E. coli
Protocol: The PDE7B catalytic domain was expressed in and purified from E. coli and tested for activity in an in vitro enzyme assay, measuring the hydrolysis of cAMP to AMP. Four dilutions of the enzyme preparation were tested at various compound concentrations (X axis). The percent of cAMP hydrolyzed is plotted on the Y axis.

PDE4D2 = target: T1, PDE4D2 (Homo sapiens, UniProt Q08499); assay: 5FOA growth assay in fission yeast strain expressing PDE4D2; assay type: cell-based; details: OD600 0.6; read-out: ED50 for 5FOA growth assays, PDE4D2
T1 construct: targets used in the assays are full-length proteins (as opposed to simply the catalytic domain); expressed in transfected cells; host or cells: Schizosaccharomyces pombe
T1 sequence (Q08499 303-809): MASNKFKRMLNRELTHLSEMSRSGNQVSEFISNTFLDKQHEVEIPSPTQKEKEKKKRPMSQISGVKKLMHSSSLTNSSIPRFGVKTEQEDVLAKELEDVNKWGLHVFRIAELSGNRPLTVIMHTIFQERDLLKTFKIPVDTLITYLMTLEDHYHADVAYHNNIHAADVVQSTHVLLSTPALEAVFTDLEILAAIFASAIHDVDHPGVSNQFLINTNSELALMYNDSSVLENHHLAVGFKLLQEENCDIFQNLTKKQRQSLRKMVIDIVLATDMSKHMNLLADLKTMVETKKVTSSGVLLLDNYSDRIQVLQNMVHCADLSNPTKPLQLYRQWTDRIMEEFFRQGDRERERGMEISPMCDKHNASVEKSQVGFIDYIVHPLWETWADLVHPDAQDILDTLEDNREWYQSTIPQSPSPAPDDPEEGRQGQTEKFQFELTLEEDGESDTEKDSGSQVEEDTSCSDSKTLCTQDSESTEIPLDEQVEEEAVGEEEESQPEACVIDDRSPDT
Protocol: (§1) Cells were pregrown in EMM medium [MP Biomedicals (Solon, Ohio), 3% glucose, filter-sterilized to avoid carmelization, which would introduce variability into the optical density of the medium] containing from 0 mM to 2.5 mM cAMP (or either 0.5 mM or 1.0 mM cGMP). This was to repress expression of the fbp1-ura4 reporter prior to exposure of cells to 5FOA medium. Cells were grown at 30° C. to exponential phase (approximately 10^7 cells/ml). […] Starting cell concentrations ranged from 0.5×10^5 to 4×10^5 cells/ml depending on the screening strain. […] Other positive control dishes contained 5 mM cAMP in the 5FOA medium for PDEs that lack appropriate control compounds. Cultures were grown for 48 hours at 30° C., sealed in an airtight container with moist paper towels to prevent evaporation. Optical densities (OD600) of cultures were measured using a microplate reader. Bioinformatic analysis of the results to determine composite Z scores was performed as previously described (1, 3).

PDE4B2 [1] = target: T2, PDE4B2 (Homo sapiens, UniProt Q07343); assay: 5FOA growth assay in fission yeast strain expressing PDE4B2; assay type: cell-based; design: targets used in the assays are full-length proteins (as opposed to simply the catalytic domain); expressed in transfected cells; host or cells: Schizosaccharomyces pombe; details: OD600 0.6
T2 sequence (Q07343 1-564 isoform Q07343-2, species assumed): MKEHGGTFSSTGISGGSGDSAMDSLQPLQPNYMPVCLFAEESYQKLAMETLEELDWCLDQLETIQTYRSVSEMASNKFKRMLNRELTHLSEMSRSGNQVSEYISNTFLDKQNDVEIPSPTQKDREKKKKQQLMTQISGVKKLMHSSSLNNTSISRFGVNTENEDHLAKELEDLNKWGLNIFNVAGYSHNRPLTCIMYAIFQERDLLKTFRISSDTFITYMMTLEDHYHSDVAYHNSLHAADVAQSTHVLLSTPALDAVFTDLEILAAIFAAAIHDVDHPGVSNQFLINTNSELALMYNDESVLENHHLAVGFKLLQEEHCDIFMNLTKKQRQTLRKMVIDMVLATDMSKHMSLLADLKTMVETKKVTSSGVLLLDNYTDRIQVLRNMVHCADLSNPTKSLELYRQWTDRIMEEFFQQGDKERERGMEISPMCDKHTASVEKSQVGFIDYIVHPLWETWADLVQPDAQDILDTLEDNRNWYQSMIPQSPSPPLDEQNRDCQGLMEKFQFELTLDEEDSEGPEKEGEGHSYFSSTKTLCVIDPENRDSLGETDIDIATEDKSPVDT
Protocol: as §1

PDE4D2-CAT = target: T3, PDE4D2-CAT (Homo sapiens, UniProt Q08499); assay: in vitro enzyme assay, catalytic fragment of PDE4D2 (residues 86-413); assay type: biochemical; details: catalytic fragment; AC200 = [Compound] that doubles PDE activity; read-out: IC50 (or AC200), PDE4D2-CAT
T3 construct: 86-413; made in house; host or cells: E. coli
T3 sequence (Q08499 388-715): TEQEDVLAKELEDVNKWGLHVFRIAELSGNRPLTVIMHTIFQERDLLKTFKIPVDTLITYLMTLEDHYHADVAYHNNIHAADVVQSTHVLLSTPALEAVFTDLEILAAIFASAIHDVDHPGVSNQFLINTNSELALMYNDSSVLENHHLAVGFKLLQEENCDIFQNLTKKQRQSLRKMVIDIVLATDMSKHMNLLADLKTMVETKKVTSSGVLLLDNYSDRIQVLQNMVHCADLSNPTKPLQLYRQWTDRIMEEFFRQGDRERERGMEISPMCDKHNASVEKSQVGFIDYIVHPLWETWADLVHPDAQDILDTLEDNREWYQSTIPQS

PDE4B2 [2] = target: T2, PDE4B2; assay: in vitro enzyme assay, E. coli expressed and purified PDE4B2; assay type: biochemical; design: targets used in the assays are full-length proteins (as opposed to simply the catalytic domain); details: read-out: IC50 (or AC200), PDE4B2
PDE4D2-FL = target: T4, PDE4D2-FL (Homo sapiens, UniProt Q08499); assay: in vitro enzyme assay, full-length PDE4D2 (residues 1-507); assay type: biochemical; details: read-out: IC50 (or AC200), PDE4D2-FL
T4 construct: 1-507; made in house; host or cells: E. coli
T4 sequence (Q08499 303-809): as the sequence (Q08499 303-809) above

PDE4A10 = target: T5, PDE4A10 (Homo sapiens, UniProt P27815); assay: in vitro enzyme assay, E. coli expressed and purified PDE4A10; assay type: biochemical; details: read-out: IC50 (or AC200), PDE4A10
T5 construct: made in house; host or cells: E. coli
T5 sequence (P27815 1-825 isoform P27815-6, species assumed): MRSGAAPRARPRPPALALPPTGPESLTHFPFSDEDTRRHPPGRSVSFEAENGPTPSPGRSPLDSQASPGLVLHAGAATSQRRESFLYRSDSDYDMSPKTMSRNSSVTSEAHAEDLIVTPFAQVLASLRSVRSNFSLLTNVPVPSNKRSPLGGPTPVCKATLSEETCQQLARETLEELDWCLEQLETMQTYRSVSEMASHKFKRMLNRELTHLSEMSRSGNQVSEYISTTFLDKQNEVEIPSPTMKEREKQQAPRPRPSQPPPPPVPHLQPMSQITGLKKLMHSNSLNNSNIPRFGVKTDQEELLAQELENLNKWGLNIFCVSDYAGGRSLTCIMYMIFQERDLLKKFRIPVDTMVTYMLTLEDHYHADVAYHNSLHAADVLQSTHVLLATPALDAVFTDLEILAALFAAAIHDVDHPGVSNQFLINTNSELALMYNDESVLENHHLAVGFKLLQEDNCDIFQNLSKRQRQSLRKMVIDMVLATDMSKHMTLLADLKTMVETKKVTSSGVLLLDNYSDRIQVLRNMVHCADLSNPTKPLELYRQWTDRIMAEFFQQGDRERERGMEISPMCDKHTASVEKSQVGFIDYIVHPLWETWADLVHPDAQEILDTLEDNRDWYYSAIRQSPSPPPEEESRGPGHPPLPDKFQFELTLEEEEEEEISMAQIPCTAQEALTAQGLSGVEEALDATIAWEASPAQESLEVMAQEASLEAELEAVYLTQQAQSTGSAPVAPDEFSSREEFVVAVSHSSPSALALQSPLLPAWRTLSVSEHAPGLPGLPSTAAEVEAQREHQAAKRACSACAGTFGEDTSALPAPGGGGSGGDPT

PDE7A = PDE7A (Homo sapiens, UniProt Q13946); assay: in vitro enzyme assay PDE7A; assay type: biochemical; design: made in house; host or cells: E. coli; details: 2 micromolar compound; read-out: percent of PDE activity present, PDE7A
Sequence of PDE7A (Q13946 whole entry): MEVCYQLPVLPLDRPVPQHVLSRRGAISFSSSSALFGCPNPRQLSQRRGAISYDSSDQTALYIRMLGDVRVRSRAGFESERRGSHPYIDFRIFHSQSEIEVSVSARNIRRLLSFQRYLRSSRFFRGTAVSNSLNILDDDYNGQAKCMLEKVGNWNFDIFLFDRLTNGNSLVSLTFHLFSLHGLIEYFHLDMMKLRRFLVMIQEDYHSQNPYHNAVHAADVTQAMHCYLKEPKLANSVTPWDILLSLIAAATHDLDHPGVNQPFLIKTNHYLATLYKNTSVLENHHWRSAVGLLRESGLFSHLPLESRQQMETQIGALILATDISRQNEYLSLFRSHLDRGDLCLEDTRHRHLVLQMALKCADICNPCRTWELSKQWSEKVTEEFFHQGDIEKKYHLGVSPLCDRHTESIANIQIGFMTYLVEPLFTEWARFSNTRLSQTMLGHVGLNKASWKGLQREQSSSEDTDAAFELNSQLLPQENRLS

PDE4B = PDE4B (Homo sapiens, UniProt Q07343); assay: in vitro enzyme assay PDE4B (Table 7); assay type: biochemical; details: 2 micromolar compound; read-out: percent of PDE activity present, PDE4B
Sequence of PDE4B (Q07343 whole entry, species assumed): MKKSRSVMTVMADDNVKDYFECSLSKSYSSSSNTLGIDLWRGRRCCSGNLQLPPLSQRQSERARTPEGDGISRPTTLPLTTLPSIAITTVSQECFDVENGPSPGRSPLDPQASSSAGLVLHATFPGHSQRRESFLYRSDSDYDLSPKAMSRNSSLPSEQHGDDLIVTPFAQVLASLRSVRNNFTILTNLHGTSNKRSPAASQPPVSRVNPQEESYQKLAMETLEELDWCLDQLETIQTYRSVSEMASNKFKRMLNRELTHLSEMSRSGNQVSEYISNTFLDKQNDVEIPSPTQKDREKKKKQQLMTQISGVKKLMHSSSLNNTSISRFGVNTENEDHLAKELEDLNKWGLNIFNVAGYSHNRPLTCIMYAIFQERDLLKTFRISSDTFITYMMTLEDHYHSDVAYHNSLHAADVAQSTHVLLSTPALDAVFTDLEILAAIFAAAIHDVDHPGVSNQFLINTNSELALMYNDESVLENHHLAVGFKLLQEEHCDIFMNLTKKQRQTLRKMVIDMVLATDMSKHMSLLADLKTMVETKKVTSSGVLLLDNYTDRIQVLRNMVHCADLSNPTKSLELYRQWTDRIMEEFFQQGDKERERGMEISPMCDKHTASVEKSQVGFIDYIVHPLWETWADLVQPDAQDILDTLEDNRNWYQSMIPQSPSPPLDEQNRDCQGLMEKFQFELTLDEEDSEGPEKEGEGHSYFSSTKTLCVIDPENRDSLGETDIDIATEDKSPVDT

PDE4A = PDE4A (Homo sapiens, UniProt P27815); assay: in vitro enzyme assay PDE4A (Table 7); assay type: biochemical; details: 2 micromolar compound; read-out: percent of PDE activity present, PDE4A
Sequence of PDE4A (P27815 whole entry, species assumed): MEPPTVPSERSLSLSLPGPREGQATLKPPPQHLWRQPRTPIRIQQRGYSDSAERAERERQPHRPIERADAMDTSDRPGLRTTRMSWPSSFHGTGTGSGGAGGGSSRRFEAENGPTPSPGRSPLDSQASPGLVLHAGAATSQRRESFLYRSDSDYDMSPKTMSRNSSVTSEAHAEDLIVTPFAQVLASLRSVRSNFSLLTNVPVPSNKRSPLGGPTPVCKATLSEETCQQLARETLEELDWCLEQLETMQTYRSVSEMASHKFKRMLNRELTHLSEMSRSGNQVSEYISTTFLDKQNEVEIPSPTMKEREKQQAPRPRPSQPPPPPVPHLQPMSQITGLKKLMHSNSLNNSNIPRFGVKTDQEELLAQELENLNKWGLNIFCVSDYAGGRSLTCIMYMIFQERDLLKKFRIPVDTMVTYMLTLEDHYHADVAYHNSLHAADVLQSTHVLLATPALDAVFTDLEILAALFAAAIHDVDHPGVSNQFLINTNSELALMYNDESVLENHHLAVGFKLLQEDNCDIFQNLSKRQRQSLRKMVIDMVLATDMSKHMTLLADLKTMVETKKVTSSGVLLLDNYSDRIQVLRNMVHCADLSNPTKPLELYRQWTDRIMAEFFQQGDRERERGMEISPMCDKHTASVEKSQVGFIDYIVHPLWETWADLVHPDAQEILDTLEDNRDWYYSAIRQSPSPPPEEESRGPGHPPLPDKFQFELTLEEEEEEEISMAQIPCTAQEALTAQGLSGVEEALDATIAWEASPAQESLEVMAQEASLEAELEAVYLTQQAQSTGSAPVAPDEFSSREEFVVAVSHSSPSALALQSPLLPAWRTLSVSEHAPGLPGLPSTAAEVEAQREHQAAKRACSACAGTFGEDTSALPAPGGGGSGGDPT

PDE4D = PDE4D (Homo sapiens, UniProt Q08499); assay: in vitro enzyme assay PDE4D (Table 7); assay type: biochemical; details: 2 micromolar compound; read-out: percent of PDE activity present, PDE4D

Sequence of PDE7B (Q9NP56 97-420 limits assumed, species assumed): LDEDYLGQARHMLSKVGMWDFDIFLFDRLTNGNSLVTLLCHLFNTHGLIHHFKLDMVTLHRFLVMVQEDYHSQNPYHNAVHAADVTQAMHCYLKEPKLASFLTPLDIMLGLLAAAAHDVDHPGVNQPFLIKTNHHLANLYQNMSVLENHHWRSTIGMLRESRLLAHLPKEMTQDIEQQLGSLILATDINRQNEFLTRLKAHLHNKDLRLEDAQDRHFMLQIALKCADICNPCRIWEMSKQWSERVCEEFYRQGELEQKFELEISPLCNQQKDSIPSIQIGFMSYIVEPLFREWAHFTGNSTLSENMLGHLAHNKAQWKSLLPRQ

Cc1c(C(=O)Nc2ccc(F)cc2F)sc2ncnc(N3CCC(C)CC3)c12 [BC58]
PDE7B, 2 uM cpm (PDE7B; 2 uM compound): 15093 cpm

Cc1sc2ncnc(Nc3ccccc3)c2c1C [BC64]
EC50 (PDE4D2): > 200000 nM
EC50 (PDE4B2 [1]; read-out: ED50 for 5FOA growth assays, PDE4B2): > 200000 nM

N#Cc1sc2sc(C#N)c(-c3ccco3)c2c1N [Compound 30]
IC50 (PDE7B; AC200 = [Compound] that doubles PDE activity, read-out: IC50 (or AC200), PDE7B): 12000 nM
IC50 (PDE4D2-CAT): < 100 nM
IC50 (PDE4B2 [2]): ~2000 nM
IC50 (PDE4D2-FL): > 2000 nM
IC50 (PDE4A10): > 2000 nM

CCN(CC)c1ncnc2sc3c(c12)CCCC3 [BC44]
EC50 (PDE4D2): 140000 nM

CCC1CCc2c(sc3ncnc(N4CCOCC4)c23)C1 (centres unmarked) [BC33]
EC50 (PDE4B2 [1]; value marked (m), read-out: ED50 for 5FOA growth assays, PDE4B2 (m)): 1700 nM

Cc1c(C(=O)Nc2ccc(F)cc2F)sc2ncnc(N(C)c3ccccc3)c12 [Compound 58-9]
remaining activity at 2 µM (PDE7A): 52%
remaining activity at 2 µM (PDE4B): 72%
remaining activity at 2 µM (PDE4A): 84%
remaining activity at 2 µM (PDE4D): 77%

Source: patent publication US20100227853A1, “INHIBITORS OF CYCLIC AMP PHOSPHODIESTERASES” (Trustees of Boston College, priority 2008, published 2010)
